Assay results taken from patent publication US20180327364A1, “MTOR INHIBITORS AND METHODS OF USE THEREOF” (Brandeis University, priority 2015, published 2018).

Tests used:
Type in all cases: cell-based
firefly luciferase [1] = test: Luciferase assay in stably transduced luciferase HEK-293T cells; details: for wild type luciferase signal: HEK-293T cells expressing HA-luciferase, 100 μM, 4 h; for luciferase levels / activity, inhibitor alone: 100 μg/mL cycloheximide or 6 μM bortezomib
Description: Firefly luciferase and firefly luciferase-eDHFR were cloned into pBABE-puro vector which was a gift from Hartmut Land & Jay Morgenstern & Bob Weinberg (Addgene plasmid #1764). pBABE-puro-luciferase was co-transfected with VSV-G into GP2-293 cells (Retro-X Universal Packaging System, Clonetech, Mountain View, Calif.) with TransIT-2020 (MirusBio) according to TransIT-2020's manufacture's protocol. After 48 h, viral supernatant was harvested, spun down, filtered with a […] syringe filter, and added to HEK-293T supplemented with 8 μg/mL polybrene. After 4 h of infection, the media was replaced with fresh media. 48 h later, media was replaced with media containing 3 μg/mL puromycin. Media was replaced with fresh media containing puromycin every 3-4 days. After 2 weeks of puromycin selection, the cells were grown out from single cell colonies and screened for luciferase expression.
Stably transduced luciferase HEK-293T cells were plated in 96-well plates 24 h prior to treatment with 100 μM of Cbz-B3A, amine-B3A, acetyl-B3A, and Cbz-acetyl. After 4 h, cells were harvested and measured with Luciferase Assay System with Reporter Lysis Buffer from Promega according to the manufacturer's protocol. Before the addition of luciferin, protein concentration was measured by removing 2 μl of lysate from each well and adding it to diluted Bio-Rad Protein Assay Dye Reagent Concentrate, and the absorbance was measured at OD595. The protein concentration was used to normalize luciferase signal. For translation assays, cells were pretreated for 15 min with 100 μg/mL cycloheximide or 6 μM bortezomib. For the recombinant luciferase assay, Quantilum Recombinant Luciferase (Promega) was diluted 1:250,000 in reporter lysis buffer with 1 mg/mL BSA then mixed 1:1 with 200 μM compound in the same buffer for a final dilution of 1:500,000 and 100 μM compound in 20 μL. This was incubated for 10 min at room temperature then measured with Luciferase Assay System with Reporter Lysis Buffer from Promega according to the manufacturer's protocol.

[2] = tested on: 4EBP1 phosphorylation by mTORC1; test: 4EBP1 phosphorylation immunoblot in HEK-293T cells
Description: (§1) Quantification of western blots was performed with ImageJ. Cells were lysed in RIPA buffer (1% NP-40, 1% NaDeoxycholate, 0.1% SDS, 10 mM TrisCl, 10 mM β-glycerophosphate, 10 mM Na pyrophosphate, 50 mM NaF, 200 μM Na vanadate, 1 mM EDTA, 500 μM EGTA, 1% benzonase, and supplemented with complete (Roche Diagnostics) protease inhibitors).

firefly luciferase [3] = test: Luciferase assay in stably transduced luciferase HEK-293T cells; details: HEK-293T luciferase-eDHFR and wild-type luciferase cells; 200 TMP-B3A (unit not given) vs DMSO
[4] = tested on: protein translation in HEK-293T cells; test: 35S-methionine/cysteine incorporation translation assay; details: saturating concentration (Cbz-B3A 10 μM); 4 h treatment then 1 h labeling
Description: 80,000 cells/well of HEK-293T cells were plated into 24 well plates 24 h before the assay. Cells were treated with indicated concentration of compound for 4 h. After 4 h, the media was removed and replaced with DMEM without methionine and cysteine (Lifetechnologies) supplemented with 0.2 mCi/mL EXPRESS [^35S] protein labeling mix (PerkinElmer), 10% dialyzed FBS (Pierce), 1× glutaMax (Gibco), 100 U/mL penicillin 100 μg/mL streptomycin (Gibco), 1 mM sodium pyruvate (Lifetechnologies), and the indicated concentration of compound. After 1 h, this media was removed, cells were washed with ice cold PBS, and lysed with low deoxycholate RIPA buffer (10 mM Tris-Cl, 1% NP-40, 0.5% Na Deoxycholate, 0.1% SDS, 140 mM NaCl, 1 mM EDTA, 500 μM EGTA, 1× Roche Complete protease inhibitors, 1:100 Benzonase, and at pH 8.0). Lysate was centrifuged at maximum speed for 20 m at 4° C. The concentration was measured by Bradford assay. 10 μg of lysate was added to […] ice cold 1 mg/mL BSA with 0.02% Na Azide. 1 mL of ice cold 10% TCA was added, the solutions were mixed and incubated on ice for 0.5 h. These mixtures were vacuum filtered onto GF/C Whatman glass microfiber filters. The filters were washed with 2×5 mL of 10% TCA, then 2×3 mL ethanol. The filters were then dried for a 0.5 h. The filters were placed into scintillation vials with 5 mL of scintillation fluid and read on a scintillation counter.

eIF2α = eIF2α phosphorylation immunoblot in HEK-293T cells; details: 1 h; tunicamycin 5 μg/mL, thapsigargin 500 nM; compared with vehicle
Description: as §1

## CC(C)(C)OC(=O)/N=C(\NCCC[C@H](NC(=O)OC(C)(C)C)C(=O)NCCCCCCN)NC(=O)OC(C)(C)C [Amine-B3A]
Firefly luciferase [1]
  wild type luciferase signal: decreased the wild type luciferase signal

## CC(C)C[C@H](NC(=O)[C@H](Cc1ccccc1)NC(=O)c1cnccn1)B(O)O [Bortezomib, reference compound]
Firefly luciferase [1]
  luciferase levels / activity, inhibitor alone: decreased luciferase levels

## CC(=O)NCCCCCCNC(=O)OCc1ccccc1 [Cbz-acetyl]
[2]; Cbz-B3A 10 μM, Cbz-acetyl 10 μM, rapamycin 20 nM, 4 h
  4EBP1 phosphorylation (hyper- vs hypo-phosphorylated band): No shift
Firefly luciferase [1]
  wild type luciferase signal: not reduced

## CC(C)(C)OC(=O)/N=C(/NCCCC(NC(=O)OC(C)(C)C)C(=O)NCCCCNC(=O)OCc1ccccc1)NC(=O)OC(C)(C)C (centres unmarked) [JX-8]
[2]; 20 μM, 3 h, anti-4EBP1 western blot
  4EBP1 phosphorylation, comparison with Cbz-B3A: more potent mTOR inhibitor than CB3A

## COc1cc(Cc2cnc(N)nc2N)cc(OC)c1OCC(=O)NCCCCCCNC(=O)[C@H](CCCN/C(=N\C(=O)OC(C)(C)C)NC(=O)OC(C)(C)C)NC(=O)OC(C)(C)C [TMP-B3A]
Firefly luciferase [3]
  luciferase signal: reduced luciferase signal to similar levels in both luciferase-eDHFR and wild-type luciferase cells

## CC(=O)NCCCCCCNC(=O)[C@H](CCCN/C(=N\C(=O)OC(C)(C)C)NC(=O)OC(C)(C)C)NC(=O)OC(C)(C)C [acetyl-B3A]
Firefly luciferase [1]
  wild type luciferase signal: decreased the wild type luciferase signal

## C[C@@H]1C[C@@H]([C@H](O)CC2CC(=O)NC(=O)C2)C(=O)[C@@H](C)C1 [cycloheximide, reference compound]
Firefly luciferase [1]
  luciferase levels / activity, inhibitor alone: luciferase activity decreased

## CO[C@H]1C[C@@H]2CC[C@@H](C)[C@@](O)(O2)C(=O)C(=O)N2CCCC[C@H]2C(=O)O[C@H]([C@H](C)C[C@@H]2CC[C@@H](O)[C@H](OC)C2)CC(=O)[C@H](C)/C=C(\C)[C@@H](O)[C@@H](OC)C(=O)[C@H](C)C[C@H](C)/C=C/C=C/C=C/1C [rapamycin, reference compound]
[4]
  maximal inhibition of translation (35S-methionine/cysteine incorporation): 35%

## C/C=C(/C)C(=O)O[C@H]1C(C)=C2[C@H]([C@@H]1OC(=O)CCCCCCC)[C@@](C)(OC(C)=O)C[C@H](OC(=O)CCC)[C@@]1(O)[C@H]2OC(=O)[C@@]1(C)O [thapsigargin]
eIF2α
  eIF2α phosphorylation: increased phosphorylation of eIF2α

## tunicamycin
eIF2α
  eIF2α phosphorylation: increased phosphorylation of eIF2α
